For experiment [1], the system named is NCI-H292 lung cancer cells. Kind of experiment: FDA drug screening, complete media vs cholesterol-free media with simvastatin (TABLE 2). Type of experiment: cell-based, human.
In experiment [2] the test system is NCI-H292 lung cancer cells. Kind of experiment: FDA drug screening, complete media vs cholesterol-free media without statin (TABLE 1). It counts as cell-based, human.
Where [3] appears, read: NCI-H292 cells, FDA drug library screen, cholesterol-free media with simvastatin 0.04 μM.
The mark [4] stands for this setting: NCI-H292 cells, FDA drug library screen, complete media.
[5] abbreviates: complete media minus cholesterol-free media + simvastatin, >0 enhanced anti-cancer activity, about 0 neutral, <0 antagonist.
Setting [6] is: Complete minus Cholesterol-free, greater than 0 enhanced anti-cancer activity, about 0 neutral, below 0 antagonists.
Setting [7] is: NCI-H292 cells in cholesterol-free media without statin.
Where [8] appears, read: NCI-H292 cells, cholesterol-free media without statin, FDA drug library screen.
[9] abbreviates: NCI-H292 cells, complete media, FDA drug library screen.
[10] abbreviates: NCI-H292 cells, cholesterol-free media with simvastatin 0.04 μM, FDA drug library screen (TABLE 2).
The mark [11] stands for this setting: NCI-H292 cells, complete media, FDA drug library screen (TABLE 2).
The mark [12] stands for this setting: complete media minus cholesterol-free media + simvastatin (0.04 μM), >0 enhanced anti-cancer activity, about 0 neutral, <0 antagonist.
Where [13] appears, read: NCI-H292 cells, cholesterol-free media without statin.
The mark [14] stands for this setting: complete vs cholesterol-free media, greater than 0 enhanced anti-cancer activity, about 0 neutral, below 0 antagonists.
Setting [15] is: Complete minus Cholesterol-free, >0 enhanced anti-cancer activity, about 0 neutral, <0 antagonist.

From patent publication US20250144067A1, “PERSONALIZED STARVATION THERAPY FOR CANCER” (Faeth Therapeutics, Inc., priority 2021, published 2025) come the findings set out here.

Structures can show the parent of a compound that is named as a salt. Where two headings read alike, the source gives them in different places. Peptide text beside a SMILES is read from it.

For Alverine (citrate), the “Cholesterol-free media + simvastatin (0.04 μM)” value in experiment [1] (setting [3]) turned out to be 0.4761. Also, in experiment [1] (setting [4]), the “Complete Media” value is listed as 1.128. Further, the Difference in experiment [1] (setting [5]) is on record as 0.65; in experiment [2] (setting [6]), −0.59. Also, the Cholesterol-free in experiment [2] (setting [7]) came out at 1.703.

Turning to `CCCCCCCCCCC[C@@H](C[C@@H]1OC(=O)[C@H]1CCCCCC)OC(=O)[C@H](CC(C)C)NC=O` [Orlistat], the “Cholesterol-free media + simvastatin (0.04 μM)” value in experiment [1] (setting [3]) is 1.19. The “Complete Media” value in experiment [1] (setting [4]) was 1.622. Moreover, the Difference in experiment [1] (setting [5]) is reported as 0.43; in experiment [2] (complete vs cholesterol-free media, >0 enhanced anti-cancer activity, about 0 neutral, <0 antagonist), 0.49. Further, the Cholesterol-free in experiment [2] (setting [8]) was found to be 1.018. This compound also displayed a Complete in experiment [2] (setting [9]) of 1.513.

Regarding `CN(C)[C@@H]1C(O)=C(C(N)=O)C(=O)[C@@]2(O)C(O)=C3C(=O)c4c(O)cccc4[C@@](C)(O)[C@H]3[C@H](O)[C@@H]12` [Oxytetracycline (hydrochloride)], the “Cholesterol-free media + simvastatin (0.04 μM)” value in experiment [1] (setting [10]) worked out at 0.991. The “Complete Media” value in experiment [1] (setting [11]) is reported as 0.9652. Besides, the Difference in experiment [1] (setting [12]) was −0.03; in experiment [2] (setting [6]) it was −0.72. This compound also displayed a Cholesterol-free in experiment [2] (setting [7]) of 1.728. In experiment [2] (NCI-H292 cells in complete media), this compound came in with a Complete of 1.007.

As for `Cn1c([N+](=O)[O-])cnc1COC(N)=O` [Ronidazole], the “Cholesterol-free media + simvastatin (0.04 μM)” value in experiment [1] (setting [3]) turned out to be 0.9748. The “Complete Media” value in experiment [1] (setting [4]) was 1.335. Besides, the Difference was 0.36 in experiment [1] (setting [5]) and −0.47 in experiment [2] (setting [14]). Also, the Cholesterol-free in experiment [2] (setting [13]) is 1.54. For the same compound, the Complete in experiment [2] (NCI-H292 cells, complete media) was 1.069.

`C=CCc1ccc(O)c(-c2cc(CC=C)ccc2O)c1` [Magnolol]: the “Cholesterol-free media + simvastatin (0.04 μM)” value in experiment [1] (NCI-H292 cells, drug in cholesterol-free media with simvastatin 0.04 μM) is on record as 1.293. Further, the “Complete Media” value in experiment [1] (NCI-H292 cells, drug in complete media) came to 1.087. For the same compound, the Difference in experiment [1] (complete media vs cholesterol-free media + simvastatin (0.04 μM), […]) is −0.21; in experiment [2] (complete vs cholesterol-free media, […]) it was 0.40. Besides, the Cholesterol-free in experiment [2] (setting [8]) is given as 0.6495. This compound also yielded a Complete in experiment [2] (setting [9]) of 1.053.

As to `CC(O)(P(=O)(O)O)P(=O)(O)O` [Etidronic acid], the “Cholesterol-free media + simvastatin (0.04 μM)” value in experiment [1] (setting [10]) is 0.8968. Besides, the “Complete Media” value in experiment [1] (setting [11]) came to 0.9014. The Difference in experiment [1] (setting [12]) was 0.00; in experiment [2] (setting [14]), −0.34. Further, in experiment [2] (setting [13]), the Cholesterol-free is 1.196. The compound also showed a Complete in experiment [2] (NCI-H292 cells, complete media) of 0.8527.

Turning to `Nc1cc(N2CCCCC2)nc(N)[n+]1[O-]` [Minoxidil], the “Cholesterol-free media + simvastatin (0.04 μM)” value in experiment [1] (NCI-H292 cells, FDA library drug in cholesterol-free media with simvastatin 0.04 μM) amounted to 1.841. The Difference in experiment [1] (complete media vs cholesterol-free media + simvastatin (0.04 μM), >0 enhanced anti-cancer activity, about 0 neutral, <0 antagonist) is −0.68; in experiment [2] (setting [15]), −0.20. This compound also had a Cholesterol-free in experiment [2] (setting [13]) of 1.202. In addition, the Complete in experiment [2] (NCI-H292 cells, complete media) is recorded as 1.002.

For the compound Levamlodipine besylate, in experiment [1], the “Cholesterol-free media + simvastatin (0.04 μM)” value turned out to be 1.066, the “Complete Media” value was 0.9372 and the Difference is given as −0.13. In addition, in experiment [2], the Cholesterol-free is given as 1.261 and the Difference is −0.22.

Regarding `NCCCC[C@H](NC(=O)[C@@H]1CCCN1C(=O)[C@@H]1CSSC[C@H](N)C(=O)N[C@@H](Cc2ccccc2)C(=O)N[C@@H](Cc2ccccc2)C(=O)N[C@@H](CCC(N)=O)C(=O)N[C@@H](CC(N)=O)C(=O)N1)C(=O)NCC(N)=O` [Felypressin] (HELM PEPTIDE1{C.F.F.Q.N.C.P.K.G.[am]}$PEPTIDE1,PEPTIDE1,1:R3-6:R3$$$V2.0), in experiment [1], the “Cholesterol-free media + simvastatin (0.04 μM)” value is recorded as 1.091, the “Complete Media” value came out at 0.9792 and the Difference is −0.11. For the same compound, in experiment [2], the Cholesterol-free amounted to 0.991, the Complete is 0.8009 and the Difference is given as −0.19.

On to `Fc1ccc([C@@H]2CCNC[C@H]2COc2ccc3c(c2)OCO3)cc1` [Paroxetine (hydrochloride)], for which the “Cholesterol-free media + simvastatin (0.04 μM)” value in experiment [1] (setting [10]) stood at 0.916. For the same compound, the “Complete Media” value in experiment [1] (setting [11]) was found to be 0.9086. The Difference in experiment [1] (setting [12]) is on record as −0.01; in experiment [2] (setting [15]), −0.22. Further, in experiment [2] (setting [13]), the Cholesterol-free is recorded as 1.09. In addition, the Complete in experiment [2] (NCI-H292 cells, complete media) turned out to be 0.8739.
